Measurements as given in patent US8877802B2 (priority 2005, dated 2014).
Like-named read-outs stand apart in the source and are kept apart here.

Key:
[1] = test system: DA-depleted DAT-KO (DDD) mice; assay: Locomotor activity (forward locomotion, distance traveled) in DDD mice; conditions: for effect in tests of forward locomotion or akinesia and rigidity: NE- and 5-HT-related drugs, data not shown
[2] = test system: DA-depleted DAT-KO (DDD) mice; assay: Ptosis score in DDD mice; conditions: cumulative dosing, scale 0-4, n=4
[3] = test system: DA-depleted DAT-KO (DDD) mice; conditions: mouse, in vivo
DD mice = conditions: [76], cited from earlier work
[4] = test system: DA-depleted DAT-KO (DDD) mice; assay: Akinesia test (forelimb steps in 30 s) in DDD mice; conditions: as E7; 1 h after second dose
[5] = test system: DA-depleted DAT-KO (DDD) mice; assay: Grasping test of muscular rigidity in DDD mice; conditions: as E1; 1 h after second dose
[6] = test system: DA-depleted DAT-KO (DDD) mice; assay: Catalepsy test (horizontal bar) in DDD mice; conditions: for Catalepsy (sec) 2 h: as E4, 1 h after second dose
WT mice [7] = assay: Locomotor activity after αMT; conditions: αMT 250 mg/kg IP
DAT-KO mice [8] = assay: Locomotor activity after αMT
WT mice [9] = assay: Frontal cortex tissue NE by HPLC-EC after αMT; format: in vivo; conditions: αMT 250 mg/kg IP; 8 h after treatment
Method: (§1) Neurochemical assessments. Striatal tissue contents of DA and frontal cortical tissue levels of NE were assessed using HPLC-EC (high performance liquid chromatography with electrochemical detection) as described. In vivo microdialysis measurements of striatal extracellular DA levels in freely moving mice were performed at least 24 h after implantation of a microdialysis probe as described previously. Dialysate samples were assayed for DA using HPLC-EC.

DAT-KO mice [10] = assay: Frontal cortex tissue NE by HPLC-EC after αMT; format: in vivo; conditions: αMT 250 mg/kg IP; 8 h after treatment
Method: as §1

DAT-KO mice [11] = conditions: 100 mg/kg IP once every 3 d for 40 wk; cited from earlier work
WT mice [12] = assay: In vivo microdialysis of striatal extracellular DA; conditions: αMT 250 mg/kg IP; freely moving WT mice
Method: as §1

DAT-KO mice [13] = assay: In vivo microdialysis of striatal extracellular DA
Method: as §1

WT mice [14] = assay: Striatal tissue DA by HPLC-EC after αMT; format: in vivo; conditions: αMT 250 mg/kg IP; 4 h
Method: as §1

DAT-KO mice [15] = assay: Striatal tissue DA by HPLC-EC after αMT; format: in vivo; conditions: αMT 250 mg/kg IP
Method: as §1

DAT-KO mice [16] = assay: Behavioral tests after αMT (akinesia, catalepsy, grasping, bracing, tremor, ptosis, righting reflex); conditions: αMT 250 mg/kg IP
WT mice [17] = assay: Neurotoxic regimen of (±)-MDMA; conditions: (±)-MDMA 4 injections of 20 mg/kg IP, every 2 h; WT mice n=7
DAT-KO mice [18] = assay: Neurotoxic regimen of (±)-MDMA, striatal tissue DA and 5-HT 7 d later; conditions: (±)-MDMA 4 injections of 20 mg/kg IP, every 2 h, DAT-KO mice n=7
6-OH-DA-lesioned rats = 6-OH-DA-lesioned rats [85]; cited from earlier work
MPTP-treated monkeys = MPTP-treated monkeys [64]; cited from earlier work
haloperidol-treated rats = haloperidol-treated rats [84]; cited from earlier work
TA1 receptor = TA1 receptor (Rattus norvegicus, UniProt Q923Y9); conditions: reported in [42]; cited from earlier work
[19] = DDD mice, drug 1 h after αMT 250 mg/kg IP

TA1 receptor, sequence (Q923Y9 whole entry): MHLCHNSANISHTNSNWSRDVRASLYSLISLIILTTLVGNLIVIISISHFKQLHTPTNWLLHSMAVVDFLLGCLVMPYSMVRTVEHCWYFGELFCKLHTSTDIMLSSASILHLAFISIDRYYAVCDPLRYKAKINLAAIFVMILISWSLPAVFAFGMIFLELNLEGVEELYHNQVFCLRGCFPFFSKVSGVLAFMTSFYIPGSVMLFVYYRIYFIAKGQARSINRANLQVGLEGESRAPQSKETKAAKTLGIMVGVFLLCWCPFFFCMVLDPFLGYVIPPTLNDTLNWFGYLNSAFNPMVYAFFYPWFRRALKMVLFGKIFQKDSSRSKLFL

With `N[C@H](C(=O)O)[C@H](O)c1ccc(O)c(O)c1` [L-DOPS, L-threo-3,4-dihydroxyphenylserine] the “effect in tests of forward locomotion or akinesia and rigidity” value (shortened to “effect in tests”) ([1]; DDD mice) was “none were effective”, the ptosis score ([2]; 1 h after 100 mg/kg IP) was 2.50±0.28 and the ptosis score ([2]; 1 h after 200 mg/kg IP) was 0. It also gave a ptosis score ([2]; 1 h after 400 mg/kg IP) of 0.
In the case of `CC(C)(N)Cc1ccccc1` [phentermine], the “effects on akinesia and rigidity after pretreatment with D1 and D2 DA antagonists” value [3] is reported as “did not prevent the effects” and the “manifestations of akinesia and rigidity” value [3] is reported as “effective in reducing manifestations of akinesia and rigidity”.
In the case of `C[C@]12N[C@H](Cc3ccccc31)c1ccccc12` [MK-801], the “forward locomotion (distance traveled)” value [1, 19] is reported as “not effective”, the “forward locomotion (distance traveled)” value ([1]; DDD mice, drug 1 h after αMT 250 mg/kg IP, listed as ME-801) is reported as “did not result in a significant increase in forward locomotion” and the “manifestations of akinesia and rigidity” value [3] is reported as “able to reduce rigidity”.
For `C#CCN(C)[C@H](C)Cc1ccccc1` [deprenyl], the “potentiation of locomotor-stimulating effect of subthreshold L-DOPA/carbidopa” value ([1]; DDD mice, L-DOPA/carbidopa 10/10 mg/kg IP 15 min after drug, distance traveled for 2 h) was “failed to potentiate”.
In the case of `CN1CCc2cccc3c2[C@H]1Cc1ccc(O)c(O)c1-3` [apomorphine], the “forward locomotion (distance traveled)” value [1, 19] is reported as “induced locomotion”.
With `Clc1cccc(Cl)c1N=C1NCCN1` [clonidine] the “effect in tests” value ([1]; DDD mice) was “none were effective”.
With `CNCCC(Oc1ccc(C(F)(F)F)cc1)c1ccccc1` (stereo not shown) [fluoxetine] the “effect in tests” value ([1]; DDD mice) was “none were effective”.
For `C[C@H](N)Cc1ccccc1` [d-amphetamine], the “locomotor activation in DD mice” value (DD mice; 5 mg/kg, first treatment) is listed as “induced potent locomotor activation”, the “locomotor activation in DD mice” value (DD mice; second treatment 2 h later, same dose) is listed as “failed to induce locomotion” and the “effects on akinesia and rigidity after pretreatment with D1 and D2 DA antagonists” value [3] is listed as “did not prevent the effects”. For the same compound, the “manifestations of akinesia and rigidity” value [3] was “effective in reducing manifestations of akinesia and rigidity”.
With `N[C@@H](Cc1ccc(O)c(O)c1)C(=O)O` [L-DOPA] the “forward locomotion (distance traveled)” value [1, 19] was “effectively restored locomotion”.
In the case of `C[C@@H](N)Cc1ccccc1` [L-Amphetamine], the “Akinesia (steps) 2 h” value [4] is reported as 29 ± 5 steps, the “Grasping test (sec) 2 h” value [5] is reported as 9 ± 3 s and the “Catalepsy (sec) 2 h” value [6] is reported as 99 ± 36 s.
In the case of `CN[C@@H](C)Cc1ccccc1` [d-methamphetamine], the “manifestations of akinesia and rigidity” value [3] is reported as “effective in reducing manifestations of akinesia and rigidity”.
With `CC(NC(C)(C)C)C(=O)c1cccc(Cl)c1` (stereo not shown) [Bupropion] the “Akinesia (steps) 2 h” value [4] was 29 ± 11 steps, the “Grasping test (sec) 2 h” value [5] was 16 ± 3 s and the “Catalepsy (sec) 2 h” value [6] was 123 ± 28 s.
For `NCCc1ccccc1` [beta-phenylethylamine], the “forward locomotion (distance traveled)” value [1, 19] was “did not induce forward locomotion” and the “stereotypic reactions, such as headweaving and sniffing” value ([1]; DDD mice, high doses, with or without inhibition of MAO) was “did promote weak stereotypic reactions”.
For `CNCCCN1c2ccccc2CCc2ccccc21` [desipramine], the “effect in tests” value ([1]; DDD mice) was “none were effective”.
For `CC(N)Cc1ccc(Cl)cc1` (stereo not shown) [4-chloro-amphetamine], the “manifestations of akinesia and rigidity” value [3] was “effective in reducing manifestations of akinesia and rigidity”.
For `CC(N)(Cc1ccc(O)cc1)C(=O)O` (stereo not drawn) [αMT, α-methyl-p-tyrosine], the “total distance traveled for 210 min after drug administration” value (WT mice [7]) was 505±98 cm/210 min, the “time to restoration of locomotor activity” value (DAT-KO mice [8]; after αMT 250 mg/kg IP) was 16 to 24 h and the “total distance traveled for 210 min after drug administration” value (DAT-KO mice [8]; αMT 250 mg/kg IP) was 448±75 cm/210 min. The “NE depletion in frontal cortex” value (WT mice [9]) was “about 60%”, the “NE depletion in frontal cortex” value (DAT-KO mice [10]) was “about 60%” and the “consequences of chronic treatment” value (DAT-KO mice [11]) was “showed no negative consequences”. The “effect on extracellular DA levels in striatum” value (WT mice [12]) was “only a partial decrease”, the “effect on extracellular DA levels in striatum” value (DAT-KO mice [13]; αMT 250 mg/kg IP, freely moving DAT-KO mice) was “essentially eliminated extracellular DA levels” and the “depletion of striatal tissue DA” value (WT mice [14]) was 60%. For the same compound, the “duration of the striatal DA depletion” value (DAT-KO mice [15]) was “up to 16 h”, the “striatal DA remaining after depletion” value (DAT-KO mice [15]; 15 min) was 5 % of control levels in DAT-KO mice and the “striatal DA remaining after depletion” value (DAT-KO mice [15]; DAT-KO mice, expressed against WT control) was “less than 0.2 % of WT control levels”. For the same compound, the “akinesia, catalepsy, grasping, bracing, tremor and ptosis tests” value (DAT-KO mice [16]) was “induced profound alterations” and the righting reflex (DAT-KO mice [16]) was “did not affect the righting reflex”.
In the case of `Cn1c(=O)c2c(ncn2C)n(C)c1=O` [caffeine], the “forward locomotion (distance traveled)” value ([1]; mouse, in vivo) is reported as “not effective”.
In the case of `CCNC(C)Cc1cccc(C(F)(F)F)c1` (single isomer, unassigned; (-)) [(−)-Fenfluramine], the “Akinesia (steps) 2 h” value [4] is reported as 28 ± 5 steps, the “Grasping test (sec) 2 h” value [5] is reported as 4 ± 1 s and the “Catalepsy (sec) 2 h” value [6] is reported as 104 ± 31 s.
With `CNC(C)Cc1ccc2c(c1)OCO2.Cl` (racemic) [(±)-MDMA, (±)-3,4-methylenedioxymethamphetamine HCl] the “manifestations of akinesia and rigidity” value [3] was “effective in reducing manifestations of akinesia and rigidity”, the lethality (WT mice [17]) was “lethality of all treated WT mice” and the “striatal tissue 5-HT” value (DAT-KO mice [18]) was 0.40±0.02 ng/mg tissue. The “striatal tissue DA” value (DAT-KO mice [18]) was 0.58±0.04 ng/mg tissue.
For `Cc1ccc2[nH]cc(CCN(C)C)c2c1` [5-methyl-N,N-dimethyltryptamine], the “effect in tests” value ([1]; DDD mice) was “none were effective”.
With `CC(N)Cc1ccc2c(c1)OCO2.Cl` (racemic) [(±)-MDA, (±)-3,4-methylenedioxyamphetamine HCl] the “manifestations of akinesia and rigidity” value [3] was “effective in reducing manifestations of akinesia and rigidity”.
In the case of `CNC(C)Cc1ccc2c(c1)OCO2.Cl` (single isomer, unassigned; (+)) [(+)-MDMA, (+)-3,4-methylenedioxymethamphetamine HCl], the “forward locomotion (distance traveled)” value ([1]; mouse, in vivo) is reported as “able to induce significant forward locomotion”, the “potentiation of locomotor-stimulating effect of subthreshold L-DOPA/carbidopa” value ([1]; mouse, in vivo) is reported as “potent synergistic effect” and the forward locomotion ([1]; mouse, in vivo, HCl) is reported as “induced significant forward locomotion”. The “striatal extracellular DA in DDD mice” value (DAT-KO mice [13]; (+)-MDMA 100 mg/kg IP after αMT, in vivo microdialysis) was “did not produce any detectable increase in striatal extracellular DA”.
In the case of `CNC(C)Cc1ccc2c(c1)OCO2` (stereo not shown) [MDMA, 3,4-methylenedioxymethamphetamine], the antiakinetic effects (6-OH-DA-lesioned rats) is given as “antiakinetic effects”, the antiakinetic effects (MPTP-treated monkeys) is given as “antiakinetic effects” and the anticataleptic effect (haloperidol-treated rats) is given as “potent anticataleptic effect”.
In the case of `CN1Cc2c(N)cccc2C(c2ccccc2)C1` (stereo not shown) [nomifensine], the “forward locomotion (distance traveled)” value [1, 19] is listed as “not effective”, the “activity at TA1 receptor” value (TA1 receptor) is listed as “can also potently activate TA1 receptor” and the “manifestations of akinesia and rigidity” value [3] is listed as “significantly reduced akinesia and rigidity”. For the same compound, the reversing catalepsy ([6]; DDD mice, cumulative treatment with 10 and 30 mg/kg IP) was “not effective”.
In the case of `CCCN1C[C@H](CSC)C[C@@H]2c3cccc4[nH]cc(c34)C[C@H]21` [pergolide], the “forward locomotion (distance traveled)” value [1, 19] is reported as “induced locomotion”.
With `CCN[C@@H](C)Cc1cccc(C(F)(F)F)c1` [(+)-Fenfluramine] the “Akinesia (steps) 2 h” value [4] was 21 ± 3 steps, the “Grasping test (sec) 2 h” value [5] was 9 ± 4 s and the “Catalepsy (sec) 2 h” value [6] was 113 ± 23 s.
For `CCNC(C)Cc1cccc(C(F)(F)F)c1` (racemic) [(±)-Fenfluramine], the “Akinesia (steps) 2 h” value [4] was 32 ± 6 steps, the “Grasping test (sec) 2 h” value [5] was 8 ± 4 s and the “Catalepsy (sec) 2 h” value [6] was 138 ± 28 s.
In the case of `COc1ccc2[nH]cc(CCN(C)C)c2c1` [5-methoxy-N,N-dimethyltryptamine], the “effect in tests” value ([1]; DDD mice) is reported as “none were effective”.
In the case of `COc1ccc2[nH]cc(C3=CCNCC3)c2c1` [RU24969], the “effect in tests” value ([1]; DDD mice) is reported as “none were effective”.
